Measurements: patent US20230331679A1, “NAPHTHALENE MONOIMIDE COMPOUNDS AND METHODS THEREOF” (JAWAHARLAL NEHRU CENTRE FOR ADVANCED SCIENTIFIC RESEARCH, priority 2020, published 2023)

Key:
APP/PS1 and WT mice = test: Morris water maze (MWM) test; format: in vivo
Procedure: The spatial and episodic memory formation under AD conditions were investigated through spatial learning and memory development tasks in MWM test. MWM test was performed in a water pool (radius: 70 cm) and experimental mice were trained four times in a day to find a hidden platform, which was removed in probe trial to assess the spatial memory. The latency time to reach the hidden platform during the training period was recorded to determine spatial learning (FIG. 16H). […] In the probe trial, AD vehicle cohort spent most of the time (~87% of total time) in other quadrants (without platform), while other cohorts (WT vehicle, WT TGR63 and AD TGR63) spent only ~67%, 58% and 66% of total time in without platform quadrants, respectively. The AD vehicle cohort spent minimum time (~13% of total time) in target quadrant (with platform) compared to WT vehicle cohort (~33% of total time). […] Remarkably, AD TGR63 cohort crossed the platform region ~4 times, which is greater than the AD vehicle cohort.

α-Syn = α-Syn (Homo sapiens, UniProt P37840); test: ThT binding assay, α-Syn aggregation inhibition; format: biochemical
Source text: Parkinson’s disease (PD) is a neuronal disorder, mainly affects the motor system. α-Syn is a presynaptic neuronal protein that is linked neuropathologically to PD plays a vital role in the pathogenesis in a number of ways. Self-aggregation of α-Syn to form fibrillar aggregates and these toxic species mediate disruption of cellular homeostasis and cause neuronal death. These toxic aggregates affect various intracellular targets, especially synaptic function. In this context, NMI compounds of the present disclosure were used to study the possible modulation of α-Syn aggregation. The effect of NMI compounds (TGR63 and TGR64) on α-syn (100 µM) aggregation inhibition was studied through ThT binding assay. Experiments were performed at stoichiometric ratios (α-Syn:inhibitor) of 1:1, 1:2, and 1:5 with the fixed concentration of α-Syn at 100 µM.

[1] = Octanol/water partition coefficient (LogP); format: physicochemical
Procedure: Pharmacokinetics of TGR63 in wild-type (WT) mice was performed to assess its in vivo efficacy. The lethal dose 50 (LD50) of TGR63 was determined in WT mice through intraperitoneal (IP) injection following the Organisation for Economic Cooperation and Development (OECD) guidelines. […] FIG. 7A illustrates the calculation of lethal dose 50% (LD50) of TGR63 through intraperitoneal administration and is represented as table of experimental details and the final observation was done on 14th day. FIG. 7B illustrates the mortality (%) plotted against TGR63 concentration and calculation of LD50. Twenty-five WT mice were segregated in five different groups (G1-5, N= 5 per group) and administered with varying doses of TGR63 (1.7, 5.5, 17.5 56.0 and 179.0 mg/kg body weight, respectively) through IP injection and their survival was monitored for 14 days. The serum stability and blood-brain barrier (BBB) crossing ability of TGR63 were assessed through matrix-assisted laser desorption ionization (MALDI) mass spectrometry analysis of blood and brain samples of vehicle and TGR63 treated mice. TGR63 and vehicle were administrated in WT mice and sacrificed after 1 and 24 h to collect the blood for MALDI mass analysis FIG. 8 depicts the MALDI mass analysis of vehicle (FIG. 8A) and TGR63 treated mice blood serum after 1 h (FIG. 8B) and 24 h (FIG. 8C) of administration. The presence of TGR63 in blood was confirmed from the mass analysis even after 24 h. […] TGR63 was incubated in PBS (10 mM, pH= 7.4) and blood serum in WT mice for different time intervals (0.5, 1, 2 and 6 h) at 37° C. to evaluate the serum stability under in vitro conditions. […] FIG. 9 depicts the Serum stability of TGR63 under in vitro conditions. TGR63 was incubated in PBS (10 mM, pH= 7.4) and blood serum (WT mouse) for different time (0.5, 1, 2 and 6 h) at 37° C. […] The partition coefficient (P), a valuable physical property was calculated to predict the BBB permeability. […] FIG. 10 depicts the calculation of LogP. […] The calculated positive logP value predicts the possible BBB crossing ability for TGR63. […]

Aβ42 peptide = target: T1, Aβ42 peptide (Homo sapiens, UniProt P05067); test: 1H NMR study of molecular interactions between TGR63 and Aβ42; format: binding; details: Aβ42 10 µM, D2O (12%) containing PBS, 24, 48 and 72 h
T1 construct: commercially available β-amyloid peptide (1-42), human; purchased marck (so in the source) PP69-.025 mg
T1 sequence (P05067 672-713 limits assumed): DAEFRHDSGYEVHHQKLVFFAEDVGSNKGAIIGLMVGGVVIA
Procedure: Nuclear magnetic resonance (NMR) spectroscopy was performed to ascertain the molecular level interactions between TGR63 and Aβ42 peptide. ^1H NMR spectra of TGR63 were acquired in absence and presence of Aβ42 (10 µM) peptides using the WATERGATE sequence for solvent suppression in deuterium oxide (D2O, 12%) containing PBS at different incubation time points (24, 48 and 72 h). […] The aromatic protons of NMI and aniline moieties (a-f) appeared at 6.5-8.8 ppm, respectively. However, the splitting patterns of all the aromatic peaks were completely readjusted undergoing a significant downfield shift over a period of time in the presence of Aβ42 peptide. This observation confirmed the interaction of aromatic moieties (π-electron rich) of TGR63 with native and misfolded Aβ42 peptides, which leads to alteration in the extent of nuclei and proximal electron coupling (J-couplings).

Aβ42 fibrils = target: T2, Aβ42 fibrils (Homo sapiens, UniProt P05067); test: TEM visualization of Aβ42 aggregation species; format: biochemical; details: 10 µM Aβ42, 50 µM TGR63, 48 h
T2 construct: commercially available β-amyloid peptide (1-42), human; purchased marck (so in the source) PP69-.025 mg
T2 sequence (P05067 672-713 limits assumed): as above
Procedure: To visualize the amyloid fibrils, the 10 µM of Aβ42 peptides were incubated alone, and in combination with 50 µM TGR63 for 48 h and spotted on mica surface and TEM grid to acquire the TEM images. FIG. 4(a) and FIG. 4(b) show the TEM images of Aβ42 aggregation species in the absence and presence of TGR63 respectively.

## CN(C)c1ccc(C#Cc2ccc3c4c(cccc24)C(=O)N(CC[N+](C)(C)C)C3=O)cc1 [TGR63, 2-(6-((4-(dimethylamino)phenyl)ethynyl)-1,3-dioxo-1H-benzo[de]isoquinolin-2(3H)-yl)-N,N,N-trimethylethan-1-aminium]
APP/PS1 and WT mice; AD TGR63 cohort, probe trial
  exploration in target quadrant relative to AD vehicle cohort: < 20%
APP/PS1 and WT mice; AD TGR63 cohort, training days
  spatial memory formation (latency to hidden platform during training): significant improvement in spatial memory formation compared to AD vehicle cohort
APP/PS1 and WT mice; AD TGR63 cohort, AD vehicle ~1 time, WT vehicle ~4 times
  platform region crossings, probe trial: ~ 4 times
APP/PS1 and WT mice; AD TGR63 cohort, AD vehicle ~13%
  exploration in target quadrant, probe trial: ~ 34 % of total time
APP/PS1 and WT mice; AD TGR63 cohort, AD vehicle ~87%
  time in without platform quadrants, probe trial: ~66 % of total time
APP/PS1 and WT mice; WT TGR63 cohort, WT vehicle ~33%
  exploration in target quadrant, probe trial: < 35 % of total time
APP/PS1 and WT mice; WT TGR63 cohort, WT vehicle ~67%
  time in without platform quadrants, probe trial: ~58 % of total time
α-Syn; α-Syn:inhibitor 1:1, α-Syn 100 µM
  decrease in the formation of α-Syn aggregates: ~ 54%
α-Syn; α-Syn:inhibitor 1:2, α-Syn 100 µM
  α-Syn aggregation decreased to: 65%
α-Syn; α-Syn:inhibitor 1:5, α-Syn 100 µM
  α-Syn aggregation decreased to: 93%
[1]; calculated from octanol and water layer concentrations
  logP: 0.1
[1]; octanol/water partition
  concentration in octanol layer: 21.82 µM
  concentration in water layer: 18.18 µM
Aβ42 peptide
  interaction with Aβ42 peptides (1H NMR): interacts with native and misfolded Aβ42 peptides
Aβ42 fibrils
  intertwined structure of Aβ42 fibrils (TEM): disrupted
